Assay results from patent US10183950B2, “Thienopyrimidine inhibitors of atypical protein kinase C” (Cancer Research Technology Limited, priority 2011, dated 2019).

These compounds were tested against T1, full-length human PKCι (Homo sapiens, UniProt P41743) (assay: PKCι IC50 IMAP fluorescence polarisation assay, full-length enzyme). Settings: full length PKCi at 15 μM ATP; read-out: IC50 in IMAP assay against full length PKCi.
T1 construct: Recombinant, full-length human PKCι expressed in Sf21 insect cells is also commercially available; purchased; host or cells: Sf21 insect cells
T1 sequence (P41743 1-596): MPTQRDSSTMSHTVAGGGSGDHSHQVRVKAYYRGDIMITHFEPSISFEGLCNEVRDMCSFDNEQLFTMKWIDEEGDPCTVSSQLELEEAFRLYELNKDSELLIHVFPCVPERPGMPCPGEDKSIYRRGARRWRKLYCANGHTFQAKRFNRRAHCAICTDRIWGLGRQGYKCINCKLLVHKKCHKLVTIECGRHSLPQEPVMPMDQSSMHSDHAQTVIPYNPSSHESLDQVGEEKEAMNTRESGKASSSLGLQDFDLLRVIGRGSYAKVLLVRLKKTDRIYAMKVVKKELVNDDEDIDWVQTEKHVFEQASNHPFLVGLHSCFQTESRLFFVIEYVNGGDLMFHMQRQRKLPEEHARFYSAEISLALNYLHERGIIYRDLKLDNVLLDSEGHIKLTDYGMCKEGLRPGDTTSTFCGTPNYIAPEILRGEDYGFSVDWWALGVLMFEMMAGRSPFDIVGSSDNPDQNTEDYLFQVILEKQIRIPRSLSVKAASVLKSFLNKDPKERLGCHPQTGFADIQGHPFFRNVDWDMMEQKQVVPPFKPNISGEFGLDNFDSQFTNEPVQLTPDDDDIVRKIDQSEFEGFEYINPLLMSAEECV
Format: biochemical

IC50, < 100 nM:
N[C@H](CNc1nc(-c2ccncc2F)nc2c(-c3cc[nH]n3)csc12)Cc1ccccc1 [compound 416, (S)-N*1*-[2-(3-Fluoro-pyridin-4-yl)-7-(1H-pyrazol-3-yl)-thieno[3,2-d]pyrimidin-4-yl]-3-phenyl-propane-1,2-diamine]
Brc1csc2c(N[C@@H]3CCNC3)nc(-c3ccncc3)nc12 [compound 351, (7-Bromo-2-pyridin-4-yl-thieno[3,2-d]pyrimidin-4-yl)-(R)-pyrrolidin-3-yl-amine]
CC(O)C#Cc1csc2c(NC[C@@H](N)Cc3ccccc3)nc(-c3ccncc3)nc12 (stereo partly drawn) [compound 513, 4-[4-((S)-2-Amino-3-phenyl-propylamino)-2-pyridin-4-yl-thieno[3,2-d]pyrimidin-7-yl]-but-3-yn-2-ol]

IC50, 10000 to 40000 nM:
C[C@H](O)C#Cc1csc2c(N[C@@H]3CCNC3)nc(-c3ccncc3F)nc12 [compound 527, (S)-4-[2-(3-Fluoro-pyridin-4-yl)-4-((R)-pyrrolidin-3-ylamino)-thieno[3,2-d]pyrimidin-7-yl]-but-3-yn-2-ol]
O=S(=O)(Nc1cc(-c2nc(N[C@@H]3CCNC3)c3sccc3n2)ccn1)C1CC1 [compound 622, Cyclopropanesulfonic acid {4-[4-((R)-pyrrolidin-3-ylamino)-thieno[3,2-d]pyrimidin-2-yl]-pyridin-2-yl}-amide]
NC(=O)CNc1nc(-c2ccncc2)nc2c(Br)csc12 [compound 338, 2-(7-Bromo-2-pyridin-4-yl-thieno[3,2-d]pyrimidin-4-ylamino)-acetamide]
CCC(C)(C)C(=O)Nc1csc2c(NC[C@@H](N)Cc3ccccc3)nc(-c3ccncc3)nc12 [compound 472, N-[4-((S)-2-Amino-3-phenyl-propylamino)-2-pyridin-4-yl-thieno[3,2-d]pyrimidin-7-yl]-2,2-dimethyl-butyramide]
Cc1nc(C)c(-c2c(C)sc3c(NC[C@@H](N)Cc4ccccc4)nc(-c4ccncc4)nc23)s1 [compound 457, (S)-N*1*-[7-(2,4-Dimethyl-thiazol-5-yl)-6-methyl-2-pyridin-4-yl-thieno[3,2-d]pyrimidin-4-yl]-3-phenyl-propane-1,2-diamine]
CCOc1ccc(Cl)cc1-c1c(C)sc2c(NC[C@@H](N)Cc3ccccc3)nc(-c3ccncc3)nc12 [compound 463, (S)-N*1*-[7-(5-Chloro-2-ethoxy-phenyl)-6-methyl-2-pyridin-4-yl-thieno[3,2-d]pyrimidin-4-yl]-3-phenyl-propane-1,2-diamine]
N[C@@H]1CCN(c2nc(-c3ccncc3)nc3ccsc23)C1 [compound 318, (R)-1-(2-Pyridin-4-yl-thieno[3,2-d]pyrimidin-4-yl)-pyrrolidin-3-ylamine]

IC50, 1000 to 10000 nM:
NC(CNc1nc(-c2ccncc2F)nc2c(-c3ccc(CO)cc3)csc12)Cc1ccccc1 (stereo in doubt) [compound 424, {4-[4-((R)-2-Amino-3-phenyl-propylamino)-2-(3-fluoro-pyridin-4-yl)-thieno[3,2-d]pyrimidin-7-yl]-phenyl}-methanol]
Cc1sc2c(NC[C@H](C)N)nc(-c3ccncc3)nc2c1Br [compound 331, (S)-N*1*-(7-Bromo-6-methyl-2-pyridin-4-yl-thieno[3,2-d]pyrimidin-4-yl)-propane-1,2-diamine]
c1cc(-c2nc(N[C@@H]3CCCNC3)c3sccc3n2)ccn1 [compound 316, (R)-Piperidin-3-yl-(2-pyridin-4-yl-thieno[3,2-d]pyrimidin-4-yl)-amine]
Cc1sc2c(NC[C@H](N)Cc3ccccc3)nc(-c3ccncc3)nc2c1Br [compound 329, (R)-N*1*-(7-Bromo-6-methyl-2-pyridin-4-yl-thieno[3,2-d]pyrimidin-4-yl)-3-phenyl-propane-1,2-diamine]
Cc1c(-c2ccn[nH]2)sc2c(N[C@@H]3CCNC3)nc(-c3ccncc3)nc12 [compound 389, [7-Methyl-6-(2H-pyrazol-3-yl)-2-pyridin-4-yl-thieno[3,2-d]pyrimidin-4-yl]-(R)-pyrrolidin-3-yl-amine]
CC(C)Nc1cc(-c2nc(N[C@@H]3CCNC3)c3sccc3n2)ccn1 [compound 626, [2-(2-Isopropylamino-pyridin-4-yl)-thieno[3,2-d]pyrimidin-4-yl]-(R)-pyrrolidin-3-yl-amine]
C[C@@H](O)CNc1cc(-c2nc(N[C@@H]3CCNC3)c3sccc3n2)ccn1 [compound 592, (R)-1-{4-[4-((R)-Pyrrolidin-3-ylamino)-thieno[3,2-d]pyrimidin-2-yl]-pyridin-2-ylamino}-propan-2-ol]
CC(C)(C)/C=C/c1csc2c(NC[C@@H](N)Cc3ccccc3)nc(-c3ccncc3)nc12 [compound 406, (S)-N*1*-[7-((E)-3,3-Dimethyl-but-1-enyl)-2-pyridin-4-yl-thieno[3,2-d]pyrimidin-4-yl]-3-phenyl-propane-1,2-diamine]
Cc1ccccc1-c1csc2c(NC[C@@H](N)Cc3ccccc3)nc(-c3ccncc3F)nc12 [compound 433, (S)-N*1*-[2-(3-Fluoro-pyridin-4-yl)-7-o-tolyl-thieno[3,2-d]pyrimidin-4-yl]-3-phenyl-propane-1,2-diamine]
N[C@H](CNc1nc(-c2ccncc2F)nc2c(-c3ccccc3)csc12)Cc1ccccc1 [compound 434, (S)-N*1*-[2-(3-Fluoro-pyridin-4-yl)-7-phenyl-thieno[3,2-d]pyrimidin-4-yl]-3-phenyl-propane-1,2-diamine]
CCN(CC)C(=O)c1csc2c(NC[C@@H](N)Cc3ccccc3)nc(-c3ccncc3)nc12 [compound 552, 4-((S)-2-Amino-3-phenyl-propylamino)-2-pyridin-4-yl-thieno[3,2-d]pyrimidine-7-carboxylic acid diethylamide]
CN1CC[C@@H](Nc2nc(-c3ccnc(NC(=O)c4cccs4)c3)nc3ccsc23)C1 [compound 628, Thiophene-2-carboxylic acid {4-[4-((R)-1-methyl-pyrrolidin-3-ylamino)-thieno[3,2-d]pyrimidin-2-yl]-pyridin-2-yl}-amide]

IC50, 100 to 1000 nM:
CN1CCN(c2cccc(Nc3cc(-c4nc(N[C@@H]5CCNC5)c5sccc5n4)ccn3)c2)CC1 [compound 605, (2-{2-[3-(4-Methyl-piperazin-1-yl)-phenylamino]-pyridin-4-yl}-thieno[3,2-d]pyrimidin-4-yl)-(R)-pyrrolidin-3-yl-amine]
NC(CNc1nc(-c2ccncc2F)nc2c(-c3ccoc3)csc12)Cc1ccccc1 (stereo in doubt) [compound 426, (R)-N*1*-[2-(3-Fluoro-pyridin-4-yl)-7-furan-3-yl-thieno[3,2-d]pyrimidin-4-yl]-3-phenyl-propane-1,2-diamine]
N[C@H](CNc1nc(-c2ccncc2)nc2c(-c3ccccc3)csc12)Cc1ccccc1 [compound 417, (S)-3-Phenyl-N*1*-(7-phenyl-2-pyridin-4-yl-thieno[3,2-d]pyrimidin-4-yl)-propane-1,2-diamine]
N[C@H](CNc1nc(-c2ccncc2F)nc2c(-c3cc[nH]c3)csc12)Cc1ccccc1 [compound 420, (S)-N*1*-[2-(3-Fluoro-pyridin-4-yl)-7-(1H-pyrrol-3-yl)-thieno[3,2-d]pyrimidin-4-yl]-3-phenyl-propane-1,2-diamine]
c1cn(Cc2ccc(Nc3cc(-c4nc(N[C@@H]5CCNC5)c5sccc5n4)ccn3)cc2)cn1 [compound 614, {2-[2-(4-Imidazol-1-ylmethyl-phenylamino)-pyridin-4-yl]-thieno[3,2-d]pyrimidin-4-yl}-(R)-pyrrolidin-3-yl-amine]
Cc1cc(-c2csc3c(NC[C@@H](N)Cc4ccccc4)nc(-c4ccncc4)nc23)no1 [compound 568, (S)-N*1*-[7-(5-Methyl-isoxazol-3-yl)-2-pyridin-4-yl-thieno[3,2-d]pyrimidin-4-yl]-3-phenyl-propane-1,2-diamine]
COC/C=C/c1csc2c(NC[C@@H](N)Cc3ccccc3)nc(-c3ccncc3)nc12 [compound 404, (S)-N*1*-[7-((E)-3-Methoxy-propenyl)-2-pyridin-4-yl-thieno[3,2-d]pyrimidin-4-yl]-3-phenyl-propane-1,2-diamine]

Same assay, conditions: full length PKCi at 15 μM ATP; read-out: IC50 in IMAP assay against full length PKCi (Activity)

IC50, 1000 to 10000 nM:
NCCNc1nc(-c2ccncc2)nc2sc3c(c12)CCC1(C3)OCCO1 [compound 42]
CC(C)(C)OC(=O)N1CCc2c(sc3nc(-c4ccncc4)nc(NC[C@@H](N)Cc4ccccc4)c23)C1 [compound 90, 4-((S)-2-Amino-3-phenyl-propylamino)-2-pyridin-4-yl-5,8-dihydro-6H-pyrido[4′,3′:4,5]thieno[2,3-d]pyrimidine-7-carboxylic acid tert-butyl ester]

IC50, 10000 to 40000 nM:
CC1(C)CCc2c(sc3nc(-c4ccncc4)nc(NC[C@@H](N)Cc4ccccc4)c23)C1 [compound 77, (S)-N*1*-(7,7-Dimethyl-2-pyridin-4-yl-5,6,7,8-tetrahydro-benzo[4,5]thieno[2,3-d]pyrimidin-4-yl)-3-phenyl-propane-1,2-diamine]
